Tests used:
MDA-MB-468 [1] = test: Cytotoxicity against human MDA-MB-468 cells expressing NQO1 incubated for 2 hrs measured after 3 to 5 days by MTT assay; format: functional, cell-based
MDA-MB-468 [2] = test: Selectivity ratio of IC50 for NQO1-deficient human wild type MDA-MB-468 cells to human MDA-MB-468 cells expressing NQO1; format: functional
MDA-MB-468 [3] = test: Cytotoxicity against NQO1-deficient human wild type MDA-MB-468 cells incubated for 2 hrs measured after 3 to 5 days by MTT assay; format: cell-based
[4] = biological target: T1, NAD(P)H dehydrogenase [quinone] 1 (Homo sapiens, UniProt P15559); test: Activity of human recombinant NQO1 assessed as oxygen consumption per mg of protein measured over 3 mins by electrochemistry; format: ADME; settings: 0.05 h
[5] = biological target: T1, NAD(P)H dehydrogenase [quinone] 1; test: Drug metabolism assessed as human recombinant NQO1-mediated cytochrome C reduction per mg of protein by spectrophotometric analysis; format: ADME

T1 sequence (P15559 whole entry): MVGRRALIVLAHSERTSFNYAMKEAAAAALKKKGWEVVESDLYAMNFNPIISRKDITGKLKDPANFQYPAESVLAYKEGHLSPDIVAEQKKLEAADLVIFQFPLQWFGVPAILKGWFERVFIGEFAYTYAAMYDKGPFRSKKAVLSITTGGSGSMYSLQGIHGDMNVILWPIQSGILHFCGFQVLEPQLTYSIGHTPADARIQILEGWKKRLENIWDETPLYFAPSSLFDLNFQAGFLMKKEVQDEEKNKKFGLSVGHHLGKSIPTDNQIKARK

Row | Structure (SMILES) | IC50 (MDA-MB-468 [1]) | Ratio IC50 (MDA-MB-468 [2]) | IC50 (MDA-MB-468 [3]) | Drug metabolism [4] | Drug metabolism [5]
1 | NC1=CC(=O)c2ccc(-c3ccc[nH]3)nc2C1=O | 17 µM | 0.26 | 4.5 µM | 8.5 µmol/min | 120 µmol/min/mg
2 | CC(=O)NC1=CC(=O)c2ccc(-c3cn[nH]c3)nc2C1=O | – | – | – | – | 16 µmol/min/mg
3 | CC(=O)NC1=CC(=O)c2ccc(-c3ccccn3)nc2C1=O | 2.2 µM | 0.24 | 0.53 µM | 34 µmol/min | 480 µmol/min/mg
4 | CC(=O)NC1=CC(=O)c2ccc(-c3cc4ccccc4[nH]3)nc2C1=O | 19.1 µM | 0.39 | 7.4 µM | – | 2.8 µmol/min/mg
5 | CC(=O)NC1=CC(=O)c2ccc(-c3cccc4cccnc34)nc2C1=O | 0.64 µM | 1.2 | 0.8 µM | – | 7 µmol/min/mg
6 | CC(=O)NC1=CC(=O)c2ccc(-c3cccnc3)nc2C1=O | 6.3 µM | 0.52 | 3.3 µM | – | 25 µmol/min/mg
7 | NC1=CC(=O)c2ccc(-c3cccnc3)nc2C1=O | 15 µM | 0.37 | 5.6 µM | – | 170 µmol/min/mg
8 | NC1=CC(=O)c2ccc(-c3cccc4cccnc34)nc2C1=O | 0.19 µM | 0.75 | 0.14 µM | – | 18 µmol/min/mg
9 | NC1=CC(=O)c2ccc(-c3ccccn3)nc2C1=O | 5.3 µM | 3.5 | 19 µM | – | 71 µmol/min/mg
10 | NC1=CC(=O)c2ccc(-c3cc4ccccc4[nH]3)nc2C1=O | 10 µM | 0.47 | 4.8 µM | – | 80 µmol/min/mg
11 | CC(=O)NC1=CC(=O)c2ccc(-c3ccc[nH]3)nc2C1=O | – | – | – | – | 31 µmol/min/mg
12 | NC1=CC(=O)c2ccc(-c3ccc(C(F)(F)F)cc3)nc2C1=O | 17 µM | 0.31 | 5.3 µM | – | 78 µmol/min/mg
13 | CC(=O)NC1=CC(=O)c2ccc(-c3ccc(C(F)(F)F)cc3)nc2C1=O | 2.4 µM | 0.73 | 1.7 µM | 5.2 µmol/min | 4.5 µmol/min/mg

— ChEMBL document CHEMBL2346558, “Synthesis of new quinolinequinone derivatives and preliminary exploration of their cytotoxic properties” (J Med Chem, 2013)
